Source: patent US7419778B2, “Method for high throughput cell-based assays using versatile living microarrays” (PameGene B.V., priority 2002, dated 2008)

Test system: E. coli XL2 Blue MRF′
Assay: Sensitivity of E. coli to kanamycin in agar plugs on flow-through (Pam) substrate, zone of clearing
Type: cell-based
Conditions: 12 hours at 37° C.
Procedure: […] The porous nature of the substrate draws the molten agar into the pores by capillary action. These treated substrates were then overlaid with 10^6 cfu/ml E. coli XL2 MRF′ cells containing plasmid pUC18 that had been grown in 2TY broth with 100 μg/ml ampicillin and placed on 2TY plates with the same concentration of ampicillin. Plates were then incubated for 12 hours at 37° C.

## NC[C@H]1O[C@H](O[C@H]2[C@H](O)[C@@H](O[C@H]3O[C@H](CO)[C@@H](O)[C@H](N)[C@H]3O)[C@H](N)C[C@@H]2N)[C@H](O)[C@@H](O)[C@@H]1O [Kanamycin, kanamycin]
10 ng kanamycin, N=12
  Zone of clearing (diameter mm): 0.4 mm
100 ng kanamycin, N=16
  Zone of clearing (diameter mm): 2.1 mm
1000 ng kanamycin, N=12
  Zone of clearing (diameter mm): 3.5 mm
